Source: patent publication US6603023B2 (priority 1996, dated 2003)
pIC50: −log10 of the molar value. Several values for one entry are separate records, joined by “and”; a condition that tells them apart may be missing. Equal entries are not always repeated. Structures can show the parent of a compound that is named as a salt. Where two headings read alike, the source gives them in different places.

Legend:
DC-3F/ADX = assay: cells; assay type: cell-based, hamster; settings: DC3F/ADX, 72 h, Table 1C; SRB
Summary of the method: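 Hamster lung fibroblast DC-3F sublines selected with actinomycin D (ADII moderate, ADX very strong MDR), maintained under selecting agent in RPMI 1640-10% FBS at 37° C. Monolayers exposed to six to seven drug concentrations in duplicate, TCA-fixed, stained with 0.4% SRB; absorbance 570 nm, analyzed by median-effect plot.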

SK-N-FI = assay: cells; assay type: cell-based, human; settings: Homo sapiens, SK-N-FI, 72 h
Experimental: (§1) The drug-resistant cell lines were continuously cultured in the presence of the selecting agent, AD, DX, VBL or VM to maintain the drug resistant phenotypes. […] All cells were cultured in RPMI 1640-10% FBS at 37° C. 5% CO2 (see below).
(§2) The cytotoxicity of the drug toward the monolayer cell cultures (such as DC-3F, MCF-7, SK-N-As and sublines) was determined in 96-well microtiter plates by the SRB method as described by Skehan and co-workers (Skehan, P., et al., J. Natl. Cancer Inst. 1990, 82, 1107-1112) for measuring the cellular protein content. Cultures were fixed with trichloroacetic acid and then stained for 30 min with 0.4% suforhodamine B dissolved in 1% acetic acid. Unbound dye was removed by acetic acid washes, and the protein-bound dye was extracted with an unbuffered Tris base (tris(hydroxy-methyl)aminomethane) for determination of absorbance at 570 nm in a 96-well microtiter plate reader. The experiments were carried out in duplicate. Each run entailed six to seven concentrations of the tested drugs. Data were analyzed with the median-effect plot (Chou, T.-C. & Talalay, P. T. (1984) Adv. Enzyme Regul. 22, 27-55) using a previously described computer program (Chou, J., & Chou T.-C. 1987, Dose-effect analysis with microcomputers: Quantitation of ED50, synergism, antagonism, low-dose risk, reception-ligand binding and enzyme kinetics, IBM-PC software and manual, Biosoft, Cambridge, U.K.).

[1] = tested on: DC-3F hamster lung fibroblast cell line; assay: SRB cytotoxicity, DC-3F; assay type: cell-based; settings: Mesocricetus auratus, DC3F, 72 h, Table 1C; SRB
Summary of the method: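 Monolayer cultures grown in RPMI 1640-10% FBS at 37 °C, 5% CO2, with resistant sublines kept under their selecting agent. Cytotoxicity determined by SRB protein staining (TCA fixation, absorbance 570 nm) in duplicate at six to seven drug concentrations. ED50 obtained by median-effect plot analysis.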

[2] = tested on: CCRF-CEM human T-cell acute lymphoblastic leukemia cell line; assay: XTT cytotoxicity (cell growth inhibition), CCRF-CEM; settings: Homo sapiens, CCRF-CEM, 72 h, Table 1A; XTT
Summary of the method: (§3)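 Leukemia cells (CCRF-CEM, P388/0 and drug-resistant sublines kept under selecting agent) grew in RPMI-1640 with 10% FBS at 37 °C, 5% CO2, seeded at 5×10^4 cells/mL. After 72 h drug exposure, viability was read by XTT with 0.025 mM PMS-XTT, 4 h at 37 °C, absorbance 450/630 nm.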

in vivo = settings: male, athymic nude (nu/nu), outbred, Swiss background, mouse, in vivo, ip
Experimental: (§4) DMSO was used as a vehicle for epothilones. Each mouse received ≦40 μL DMSO in all experiments.
(§5) Athymic nude mice (nu/nu) were used for MX-1 and MCF-7/Adr human mammary carcinoma xenografts. Mice were obtained from Taconic Laboratory Animals and Service (Germantown, N.Y.: outbred, Swiss background).

[3] = tested on: MDR human mammary adenocarcinoma MCF-7/Adr xenograft; assay: in vivo
Experimental: as §4, §5

[4] = tested on: human neuroblastoma SK-N-As; assay: SRB cytotoxicity, SK-N-As; assay type: cell-based; settings: Homo sapiens, SK-N-AS, 72 h
Experimental: (§6) The DC-3F hamster lung fibroblast cell line and its actinomycin D-selected sublines (DC-3F/ADII and DC-3F/ADX) were obtained from the Memorial Sloan-Kettering Cancer Center (MSKCC).
as §1, §2

MCF-7/Adr = assay: cells; assay type: cell-based, human; settings: Homo sapiens, NCI/ADR-RES, 72 h
Experimental: Cultures were fixed with trichloroacetic acid and then stained for 30 min with 0.4% suforhodamine B dissolved in 1% acetic acid. Unbound dye was removed by acetic acid washes, and the protein-bound dye was extracted with an unbuffered Tris base (tris(hydroxy-methyl)aminomethane) for determination of absorbance at 570 nm in a 96-well microtiter plate reader. The experiments were carried out in duplicate. Each run entailed six to seven concentrations of the tested drugs.

[5] = tested on: human mammary carcinoma MX-1 xenograft
Experimental: as §4, §5

murine leukemic P388/0 = assay: XTT cytotoxicity, P388/0; assay type: cell-based; settings: Mus musculus, P388, 72 h
Experimental: as §6, §1
(§7) The cells were cultured at an initial density of 5×10^4 cells/mL. They were maintained in a 5% CO2-humidified atmosphere at 37° C. in RPMI-1640 medium (GIBCO-BRL, Gaithersburg, Md.) containing penicillin (100 U/mL), streptomycin ([…]) (GIBCO-BRL) and 10% heat inactivate fetal bovine serum. Culture for cell suspension (such as for CCRF-CEM, P388 and sublines), were performed by the XTT-microculture tetrazonium method (Scudiero, D. A. et al., Cancer Res. 1988, 48, 4827-4833) in duplicate in 96-well microtiter plates.
(§8) 2′,3′-Bis(methoxy-4-nitro-5-sufophenyl)-5-[(phenylamino)carbonyl]2H-tetrazolium hyudroxide (XTT) was prepared at 1 mg/mL in prewarmed (37° C.) medium without serum. Phenazine methosulfate (PMS) and fresh XTT were mixed together to obtain 0.025 mM PMS-XTT solution (25 μL of the stock 5 mM PMS was added per 5 mL of 1 mg/mL XTT). Following a 72 h incubation, 50 μL of the assay aliquots were added to each well of the cell culture. After incubation at 37° C. for 4 h, absorbance at 450 nm and 630 nm was measured with a microplate reader (EL340, Bio-Tek Instruments, Inc., Winooski, Vt.).

P388/Adr = assay: cells; assay type: cell-based, murine; settings: Mus musculus, P388/ADR, 72 h
Experimental: as §1, §7, §8

CCRF-CEM/VM1 = assay: cells; assay type: cell-based, human; settings: Homo sapiens, CCRF-CEM, 72 h, Table 1A; XTT
Summary of the method: as §3

CCRF-CEM/Taxol® = assay: cells; assay type: cell-based, human; settings: Homo sapiens, CCRF-CEM, 72 h
Summary of the method: as §3

CCRF-CEM/VBL100 = assay: cells; assay type: cell-based, human; settings: Homo sapiens, CCRF-CEM, 72 h, Table 1A; XTT
Summary of the method: as §3

MCF-7 = assay: SRB cytotoxicity, MCF-7; assay type: cell-based, human; settings: Homo sapiens, MCF7, 72 h
Experimental: as §2

[6] = high doses: Taxol 12, Adriamycin 3, Camptothecin 3.0 mg/kg i.p. day 8,10,12,14,16
[7] = male, athymic nude (nu/nu), outbred, Swiss background, mouse, in vivo

## COc1cccc2c1C(=O)c1c(O)c3c(c(O)c1C2=O)C[C@@](O)(C(=O)CO)C[C@@H]3O[C@H]1C[C@H](N)[C@H](O)[C@H](C)O1 [Adriamycin, doxorubicin or adriamycin HCl]
DC-3F/ADX
  pIC50: 5.65
SK-N-FI
  pIC50: 5.85
[1]
  pIC50: 7.74
[2]
  pIC50: 7.44
In vivo
  LD50: 3 mg/kg
[3]; DX 2 mg/kg
  tumor growth suppression: slight growth suppression
[3]; [6]
  Average Tumor Volume (T/C), Day 11: 0.66 T/C
  Average Tumor Volume (T/C), Day 13: 0.83 T/C
  Average Tumor Volume (T/C), Day 15: 0.57 T/C
  Average Tumor Volume (T/C), Day 17: 0.53 T/C
[3]; [7]
  lethality: 3/6
[3]; mouse, in vivo
  tumor size reduction: 22%
[3]; mouse, in vivo, HCl
  Average Tumor Size (T/C): 0.78 and 0.70 and 0.68 and 0.84 and 0.53 and 0.66 and 0.83 and 0.57
[4]
  pIC50: 7.11
MCF-7/Adr
  pIC50: 6.67
[5]; 2 mg/kg i.p. d8,10,12,14,16
  Tumor Disappearance: 1/10
[5]; 3 mg/kg i.p. d8,10,12,14,16
  Tumor Disappearance: 4/6
[5]; adriamycin 2 mg/kg i.p. Q2Dx5 from day 8
  tumor volume reduction: 28%
[5]; [7]
  lethality: 4/6
  lethality (mice died of toxicity): 1/10
Murine leukemic P388/0
  pIC50: 8.26
P388/Adr
  pIC50: 5.58
CCRF-CEM/VM1
  pIC50: 6.89
CCRF-CEM/Taxol®
  pIC50: 7.09
CCRF-CEM/VBL100
  pIC50: 5.76
MCF-7
  pIC50: 7.24
